Experimental data as given in patent US20250100996A1, “HETEROCYCLOALKYL AND HETEROARYL COMPOUNDS AND PHARMACEUTICAL COMPOSITIONS THAT MODULATE IKZF2” (Plexium, Inc., priority 2021, published 2025).

How the values were obtained:
IKZF2 (Helios) [1] = target: T1, IKZF2 (Helios) (Homo sapiens, UniProt Q9UKS7); experiment: IKZF2 reporter degradation assay (HEK 293T IKZF2-mNeonGreen reporter cell line); type: cell-based; details: HEK 293T IKZF2-mNeonGreen reporter, 24 hours incubation
T1 construct: Leu-Asp junction (codons ctcgac before the linker); mScarlet (behind P2A) (C, cleaved yes); expressed in transfected cells
T1 sequence (Q9UKS7 whole entry): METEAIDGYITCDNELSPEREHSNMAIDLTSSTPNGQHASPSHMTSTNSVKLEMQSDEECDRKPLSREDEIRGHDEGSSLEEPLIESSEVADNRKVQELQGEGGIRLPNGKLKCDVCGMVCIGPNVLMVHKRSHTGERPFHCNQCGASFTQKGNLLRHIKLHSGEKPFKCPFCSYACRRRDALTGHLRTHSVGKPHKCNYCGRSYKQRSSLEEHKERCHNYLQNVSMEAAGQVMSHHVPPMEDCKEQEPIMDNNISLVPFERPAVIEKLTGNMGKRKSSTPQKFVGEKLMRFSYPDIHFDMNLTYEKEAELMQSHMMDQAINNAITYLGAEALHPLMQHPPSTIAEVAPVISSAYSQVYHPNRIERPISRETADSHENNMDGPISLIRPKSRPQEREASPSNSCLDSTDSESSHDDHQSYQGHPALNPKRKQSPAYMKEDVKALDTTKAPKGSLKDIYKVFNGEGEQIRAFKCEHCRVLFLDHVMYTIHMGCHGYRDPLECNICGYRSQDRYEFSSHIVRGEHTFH
T1 sequence (Q96SW2 whole entry, further chain): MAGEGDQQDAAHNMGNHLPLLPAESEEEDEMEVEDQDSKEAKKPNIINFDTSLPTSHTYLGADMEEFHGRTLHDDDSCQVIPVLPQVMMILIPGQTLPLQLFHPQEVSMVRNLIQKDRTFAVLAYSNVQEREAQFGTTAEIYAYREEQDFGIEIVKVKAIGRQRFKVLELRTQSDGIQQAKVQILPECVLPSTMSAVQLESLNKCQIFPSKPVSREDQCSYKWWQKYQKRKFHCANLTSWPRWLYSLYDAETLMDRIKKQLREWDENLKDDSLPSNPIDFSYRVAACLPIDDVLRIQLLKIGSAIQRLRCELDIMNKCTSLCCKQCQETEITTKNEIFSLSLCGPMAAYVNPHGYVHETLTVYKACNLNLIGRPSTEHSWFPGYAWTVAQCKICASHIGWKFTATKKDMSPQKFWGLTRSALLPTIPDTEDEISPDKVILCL
T1 sequence (Q16531 whole entry partner): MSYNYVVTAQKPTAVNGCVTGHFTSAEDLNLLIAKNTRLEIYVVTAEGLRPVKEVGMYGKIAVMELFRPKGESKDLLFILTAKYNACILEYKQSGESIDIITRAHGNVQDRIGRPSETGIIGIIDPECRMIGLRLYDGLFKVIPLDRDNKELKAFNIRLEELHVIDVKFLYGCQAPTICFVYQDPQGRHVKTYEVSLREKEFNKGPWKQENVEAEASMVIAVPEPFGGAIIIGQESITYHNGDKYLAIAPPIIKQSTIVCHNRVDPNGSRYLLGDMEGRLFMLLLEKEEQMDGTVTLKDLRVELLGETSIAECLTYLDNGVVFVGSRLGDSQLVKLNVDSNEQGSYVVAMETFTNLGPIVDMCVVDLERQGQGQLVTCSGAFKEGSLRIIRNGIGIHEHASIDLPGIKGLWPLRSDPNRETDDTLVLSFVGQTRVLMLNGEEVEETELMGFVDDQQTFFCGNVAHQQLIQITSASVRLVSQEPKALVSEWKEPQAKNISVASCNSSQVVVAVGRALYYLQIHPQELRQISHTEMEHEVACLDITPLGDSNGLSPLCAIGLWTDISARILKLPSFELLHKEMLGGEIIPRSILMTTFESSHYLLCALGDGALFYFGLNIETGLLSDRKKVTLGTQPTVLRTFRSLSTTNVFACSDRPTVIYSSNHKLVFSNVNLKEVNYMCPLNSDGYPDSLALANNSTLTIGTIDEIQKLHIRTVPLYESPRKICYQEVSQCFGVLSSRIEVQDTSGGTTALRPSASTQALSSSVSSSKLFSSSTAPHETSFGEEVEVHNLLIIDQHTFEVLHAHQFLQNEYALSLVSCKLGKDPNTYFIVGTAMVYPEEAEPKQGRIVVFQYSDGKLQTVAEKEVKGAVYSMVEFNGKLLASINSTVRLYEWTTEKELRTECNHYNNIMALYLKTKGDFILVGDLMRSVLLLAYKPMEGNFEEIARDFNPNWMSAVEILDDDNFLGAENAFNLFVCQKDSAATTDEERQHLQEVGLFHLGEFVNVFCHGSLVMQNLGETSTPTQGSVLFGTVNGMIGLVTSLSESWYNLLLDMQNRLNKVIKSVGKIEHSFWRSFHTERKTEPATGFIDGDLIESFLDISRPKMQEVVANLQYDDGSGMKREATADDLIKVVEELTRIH
How it was run: (§1)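 Stable clonal HEK 293T lines express each IKZF-mNeonGreen-P2A-mScarlet fusion. Cells were seeded, attached overnight, then given compound (≤0.5% DMSO, quadruplicate) for 24 h at 37° C. Imaged for percent mNeonGreen-positive cells, segmented on mScarlet. DC50 from four-parameter logistic fit.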

IKZF2 (Helios) [2] = target: T2, IKZF2 (Helios) (Homo sapiens, UniProt Q96SW2+Q9UKS7); experiment: as above; type: cell-based; details: HEK-293T, 24 h, @ 1 μM, HEK 293T IKZF2-mNeonGreen reporter, 24 hours incubation
T2 construct: Leu-Asp junction (codons ctcgac before the linker); mScarlet (behind P2A) (C, cleaved yes); expressed in transfected cells
T2 sequence (Q9UKS7 whole entry): as the sequence (Q9UKS7 whole entry) above
T2 sequence (Q96SW2 whole entry): as the sequence (Q96SW2 whole entry, further chain) above
T2 sequence (Q16531 whole entry partner): as the sequence (Q16531 whole entry partner) above
How it was run: as §1

IKZF1 (Ikaros) = target: T3, IKZF1 (Ikaros) (Homo sapiens, UniProt Q13422); experiment: IKZF1 reporter degradation assay (HEK 293T IKZF1-mNeonGreen reporter cell line); type: cell-based; details: HEK 293T IKZF1-mNeonGreen reporter, 24 hours incubation
T3 construct: mScarlet (behind P2A) (C, cleaved yes); expressed in transfected cells
T3 sequence (Q96SW2 whole entry partner): as the sequence (Q96SW2 whole entry, further chain) above
T3 sequence (Q16531 whole entry partner): as the sequence (Q16531 whole entry partner) above
T3 sequence (Q13422 whole entry): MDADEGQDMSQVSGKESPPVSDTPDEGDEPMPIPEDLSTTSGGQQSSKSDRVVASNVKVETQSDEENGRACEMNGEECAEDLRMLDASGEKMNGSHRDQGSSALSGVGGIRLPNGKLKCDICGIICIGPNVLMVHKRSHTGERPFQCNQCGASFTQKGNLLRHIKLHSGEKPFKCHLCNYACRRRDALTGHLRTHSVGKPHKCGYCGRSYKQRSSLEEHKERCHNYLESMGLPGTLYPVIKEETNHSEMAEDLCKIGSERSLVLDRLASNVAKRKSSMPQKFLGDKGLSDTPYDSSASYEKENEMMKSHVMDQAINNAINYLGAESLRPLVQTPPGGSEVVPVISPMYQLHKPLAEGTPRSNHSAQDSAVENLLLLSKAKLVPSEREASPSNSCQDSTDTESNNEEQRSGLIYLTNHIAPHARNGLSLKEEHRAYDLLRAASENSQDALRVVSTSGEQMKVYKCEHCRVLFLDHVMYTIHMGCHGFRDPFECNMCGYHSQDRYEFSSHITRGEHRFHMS
How it was run: as §1

[3] = target: T4, human E3 ligase component cereblon (CRBN) (Homo sapiens, UniProt Q96SW2); experiment: Cereblon (CRBN) target engagement, NanoBRET TE Intracellular E3 Ligase Assay in transfected HEK-293T cells; details: read-out: CRBN Binding EC50
T4 construct: host or cells: HEK293T
T4 sequence (Q96SW2 whole entry): as the sequence (Q96SW2 whole entry, further chain) above
T4 sequence (Q16531 whole entry partner): as the sequence (Q16531 whole entry partner) above
How it was run: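 HEK-293T cells transiently co-transfected with NanoLuc-CRBN (N-terminal NanoLuc) and DDB1 were dosed with CRBN tracer and an 11-point compound series (typically 10 μM to 100 pM) for 2 h at 37° C. BRET at 450/610 nm gave IC50 by four-parameter logistic fit.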

IKZF3 (Aiolos) = target: T5, IKZF3 (Aiolos) (Homo sapiens, UniProt Q9UKT9); experiment: IKZF3 reporter degradation assay (HEK 293T IKZF3-mNeonGreen reporter cell line); type: cell-based; details: HEK 293T IKZF3-mNeonGreen reporter, 24 hours incubation
T5 construct: Leu-Asp junction (codons ctcgac before the linker); mScarlet (behind P2A) (C, cleaved yes); expressed in transfected cells
T5 sequence (Q96SW2 whole entry partner): as the sequence (Q96SW2 whole entry, further chain) above
T5 sequence (Q16531 whole entry partner): as the sequence (Q16531 whole entry partner) above
T5 sequence (Q9UKT9 whole entry): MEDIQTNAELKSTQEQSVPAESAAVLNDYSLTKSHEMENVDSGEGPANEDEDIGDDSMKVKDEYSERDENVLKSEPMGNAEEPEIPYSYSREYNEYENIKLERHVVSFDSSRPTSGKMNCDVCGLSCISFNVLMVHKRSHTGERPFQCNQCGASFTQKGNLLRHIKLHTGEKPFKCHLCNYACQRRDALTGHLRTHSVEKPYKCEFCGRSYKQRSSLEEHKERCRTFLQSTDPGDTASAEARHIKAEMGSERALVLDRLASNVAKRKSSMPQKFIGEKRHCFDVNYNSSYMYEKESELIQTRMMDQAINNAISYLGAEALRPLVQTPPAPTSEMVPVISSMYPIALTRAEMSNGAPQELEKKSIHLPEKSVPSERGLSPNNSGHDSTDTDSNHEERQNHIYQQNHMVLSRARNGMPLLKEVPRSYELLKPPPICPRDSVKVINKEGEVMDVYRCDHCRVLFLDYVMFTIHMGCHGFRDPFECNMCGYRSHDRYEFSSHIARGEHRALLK
How it was run: as §1

DC50 (IKZF2 (Helios) [1]) [nM] | inhibition at 1 µM (IKZF2 (Helios) [2]) [%] | DC50 (IKZF1 (Ikaros)) [nM] | EC50 [3] [nM] | DC50 (IKZF3 (Aiolos)) [nM] | inhibition at 1 µM (IKZF3 (Aiolos); HEK-293T, 24 h, @ 1 μM) [%] | Compound
5 | 64.5 | > 30000 | 3 | > 30000 |  | O=C1CCC(N2Cc3cc(O[C@H]4CCCC[C@@H]4N4CC(c5ccc6c(c5)OCCO6)C4)ccc3C2=O)C(=O)N1 (stereo partly drawn) [Compound 58-A, 3-(5-(((1S,2S)-2-(3-(2,3-dihydrobenzo[b][1,4]dioxin-6-yl)azetidin-1-yl)cyclohexyl)oxy)-1-oxoisoindolin-2-yl)piperidine-2,6-dione]
11 | 71.5 | > 30000 | 11 | > 30000 |  | O=C1CCC(N2Cc3cc(O[C@@H]4CCCC[C@H]4N4CC(c5ccc(Cl)cn5)C4)ccc3C2=O)C(=O)N1 (mixture of isomers) [Compound 163-B, Rac-3-(5-(((trans)-2-(3-(5-chloropyridin-2-yl)azetidin-1-yl)cyclohexyl)oxy)-1-oxoisoindolin-2-yl)piperidine-2,6-dione]
21 | 80.3 | > 30000 | 30 | > 30000 |  | Cc1ccnc(C2CN([C@H]3CCCC[C@H]3Oc3ccc4c(c3)CN(C3CCC(=O)NC3=O)C4=O)C2)n1 (mixture of isomers) [Compound 185-B, Rac-3-(5-(((cis)-2-(3-(4-methylpyrimidin-2-yl)azetidin-1-yl)cyclohexyl)oxy)-1-oxoisoindolin-2-yl)piperidine-2,6-dione]
123 | 25.6 | > 30000 | 7 | > 30000 |  | O=C1CCC(N2Cc3cc(O[C@H]4CCCC[C@@H]4N4CC(c5ccc(C(F)(F)F)cn5)C4)ccc3C2=O)C(=O)N1 (mixture of isomers) [Compound 192-B, Rac-3-(1-oxo-5-(((trans)-2-(3-(5-(trifluoromethyl)pyridin-2-yl)azetidin-1-yl)cyclohexyl)oxy)isoindolin-2-yl)piperidine-2,6-dione]
230 | 38.9 | > 30000 | 58 | > 30000 |  | O=C1CCC(N2Cc3cc(OC4CCC[C@@H]4N4CC(c5ccccn5)C4)ccc3C2=O)C(=O)N1 (mixture of isomers) [Compound 209-B, Rac-3-(1-oxo-5-(((cis)-2-(3-(pyridin-2-yl)azetidin-1-yl)cyclopentyl)oxy)isoindolin-2-yl)piperidine-2,6-dione]
241 | 28.8 | > 30000 | 74 | > 30000 |  | O=C1CCC(N2Cc3cc(O[C@H]4CCCC[C@@H]4N4CC(c5ccncc5F)C4)ccc3C2=O)C(=O)N1 (mixture of isomers) [Compound 167-B, Rac-3-(5-(((trans)-2-(3-(3-fluoropyridin-4-yl)azetidin-1-yl)cyclohexyl)oxy)-1-oxoisoindolin-2-yl)piperidine-2,6-dione]
14 | 75 | > 30000 | 21 | > 30000 |  | O=C1CCC(N2Cc3cc(OC4CCCCC4N4CC(c5ccnc6[nH]ccc56)C4)ccc3C2=O)C(=O)N1 (centres unmarked) [Compound 199-B, 3-(5-((2-(3-(1H-pyrrolo[2,3-b]pyridin-4-yl)azetidin-1-yl)cyclohexyl)oxy)-1-oxoisoindolin-2-yl)piperidine-2,6-dione]
138 | 49.7 | > 30000 | 120 | > 30000 |  | Cc1cnc(C2CN([C@H]3CCCC3Oc3ccc4c(c3)CN(C3CCC(=O)NC3=O)C4=O)C2)o1 (mixture of isomers) [Compound 161-B, Rac-3-(5-(((cis)-2-(3-(5-methyloxazol-2-yl)azetidin-1-yl)cyclopentyl)oxy)-1-oxoisoindolin-2-yl)piperidine-2,6-dione]
22 | 75.4 | > 30000 | 37 | > 30000 |  | O=C1CCC(N2Cc3cc(O[C@H]4CCCC[C@@H]4N4CC(c5ccc6[nH]ncc6c5)C4)ccc3C2=O)C(=O)N1 (stereo partly drawn) [Compound 204-B, 3-(5-(((1S,2S)-2-(3-(1H-indazol-5-yl)azetidin-1-yl)cyclohexyl)oxy)-1-oxoisoindolin-2-yl)piperidine-2,6-dione]
11 | 72.3 | > 30000 | 10 | > 30000 |  | Cc1cnccc1C1CN(C2CCCCC2Oc2ccc3c(c2)CN(C2CCC(=O)NC2=O)C3=O)C1 (centres unmarked) [Compound 198-B, 3-(5-((2-(3-(3-methylpyridin-4-yl)azetidin-1-yl)cyclohexyl)oxy)-1-oxoisoindolin-2-yl)piperidine-2,6-dione]
22 | 70.4 | > 30000 | 59 | > 30000 |  | O=C1CCC(N2Cc3cc(O[C@@H]4CCCC[C@@H]4N4CC(c5ccncc5Cl)C4)ccc3C2=O)C(=O)N1 (mixture of isomers) [Compound 162-B, Rac-3-(5-(((cis)-2-(3-(3-chloropyridin-4-yl)azetidin-1-yl)cyclohexyl)oxy)-1-oxoisoindolin-2-yl)piperidine-2,6-dione]
46 | 56.3 | > 30000 | 13 | > 30000 |  | O=C1CCC(N2Cc3cc(OC4CCCC4N4CC(c5ccc6cccnc6c5)C4)ccc3C2=O)C(=O)N1 (centres unmarked) [Compound 169-B, 3-(1-oxo-5-((2-(3-(quinolin-7-yl)azetidin-1-yl)cyclopentyl)oxy)isoindolin-2-yl)piperidine-2,6-dione]
71 | 74.3 | > 30000 | 44 | > 30000 |  | Cc1nccc(C2CN(C3CCCCC3Oc3ccc4c(c3)CN(C3CCC(=O)NC3=O)C4=O)C2)n1 (centres unmarked) [Compound 190-B, 3-(5-((2-(3-(2-methylpyrimidin-4-yl)azetidin-1-yl)cyclohexyl)oxy)-1-oxoisoindolin-2-yl)piperidine-2,6-dione]
85 | 27.4 | > 30000 | 6 | > 30000 |  | O=C1CCC(N2Cc3cc(O[C@H]4CCCC[C@@H]4N4CC(c5ncc(C(F)(F)F)cn5)C4)ccc3C2=O)C(=O)N1 (mixture of isomers) [Compound 187-B, Rac-3-(1-oxo-5-(((trans)-2-(3-(5-(trifluoromethyl)pyrimidin-2-yl)azetidin-1-yl)cyclohexyl)oxy)isoindolin-2-yl)piperidine-2,6-dione]
5 | 78.3 | > 30000 | 9 | > 30000 |  | O=C1CCC(N2Cc3cc(O[C@@H]4CCCC[C@@H]4N4CC(c5ccc(C(F)(F)F)cn5)C4)ccc3C2=O)C(=O)N1 (mixture of isomers) [Compound 182-B, Rac-3-(1-oxo-5-(((cis)-2-(3-(5-(trifluoromethyl)pyridin-2-yl)azetidin-1-yl)cyclohexyl)oxy)isoindolin-2-yl)piperidine-2,6-dione]
7 | 79.8 | > 30000 | 17 | 283 | 26.6 | O=C1CCC(N2Cc3cc(O[C@@H]4CCC[C@@H]4N4CC(c5ccnc6ccccc56)C4)ccc3C2=O)C(=O)N1 (stereo partly drawn) [Compound 194-B, 3-(1-oxo-5-(((1R,2S)-2-(3-(quinolin-4-yl)azetidin-1-yl)cyclopentyl)oxy)isoindolin-2-yl)piperidine-2,6-dione]
130 | 25.1 | > 30000 | 20 | > 30000 |  | O=C1CCC(N2Cc3cc(OC4CCCC4N4CC(c5cnc6ccccc6n5)C4)ccc3C2=O)C(=O)N1 (centres unmarked) [Compound 203-B, 3-(1-oxo-5-((2-(3-(quinoxalin-2-yl)azetidin-1-yl)cyclopentyl)oxy)isoindolin-2-yl)piperidine-2,6-dione]
1470 | 24.8 | > 30000 | 104 | > 30000 |  | O=C1CCC(N2Cc3cc(OC4CCC[C@@H]4N4CC(c5cccnc5)C4)ccc3C2=O)C(=O)N1 (mixture of isomers) [Compound 207-B, Rac-3-(1-oxo-5-(((cis)-2-(3-(pyridin-3-yl)azetidin-1-yl)cyclopentyl)oxy)isoindolin-2-yl)piperidine-2,6-dione]
46 | 68.6 | > 30000 | 39 | > 30000 |  | N#Cc1cc(C2CN([C@@H]3CCCC[C@@H]3Oc3ccc4c(c3)CN(C3CCC(=O)NC3=O)C4=O)C2)ccn1 (mixture of isomers) [Compound 179-B, Rac-4-(1-((cis)-2-((2-(2,6-dioxopiperidin-3-yl)-1-oxoisoindolin-5-yl)oxy)cyclohexyl)azetidin-3-yl)picolinonitrile]
6 | 81.9 | > 30000 | 6 | > 30000 |  | O=C1CCC(N2Cc3cc(OC4CCCCC4N4CC(c5ccc6cccnc6c5)C4)ccc3C2=O)C(=O)N1 (centres unmarked) [Compound 193-B, 3-(1-oxo-5-((2-(3-(quinolin-7-yl)azetidin-1-yl)cyclohexyl)oxy)isoindolin-2-yl)piperidine-2,6-dione]
